# Laboratory results: patent US6177592A, “Compounds” (priority 1997, dated 2001)
# Tests used:
# [1] = system: heat shock protein of 70 kDa (HSP70); assay: Induction of heat shock protein of 70 kDa in HL-60; assay type: cell-based, human; design: key: -: no induction was noted; ±: the induction was slight; indicates degree of intensity of induction and the more the numbers of "+", the more the intensity of induction; ++: the more the numbers of "+", the more the intensity of induction; +++: the more the numbers of "+", the more the intensity of induction; conditions: 5 μM CM
# [2] = system: NO production; assay: Inhibition of LPS-induced NO production in RAW264.7; assay type: cell-based, mouse; conditions: RAW 264.7
# Description: (§1) Inhibition activity of GM to NO production and to cell damage was measured as follows using mouse macrophage cell strain RAW264.7 cells (ATCC TIB 71) and LPS.
# Dulbecco-modified Eagle's medium (manufactured by Life Technologies Oriental; 11054-020) containing 2 mM of L-glutamine (manufactured by Life Technologies Oriental; 25030-149) containing no Phenol Red containing 5 ml of 10% fetal calf serum (manufactured by Gibco) containing 1.5×10^6 cells of RAW 264.7 was incubated in a six-well tissue culture plate in the presence of 5% carbon dioxide gas at 37° C. for 12 hours, 50μl of 50μg/ml LPS (manufactured by Sigma; L-2012) was added, then each 50 μl of 250 )i M Mn or 100 μH GM was added to each well, incubation was further continued for additional 12 hours and, after that, NO2^- produced by oxidation of NO in the medium and amount of viable cell numbers were measured. Incidentally, a sect-Lon where no LPS was added and a section where no GM was added were prepared as controls. […]
# [3] = system: p24 antigen; assay: p24 antigen in culture supernatant of CEM-3B cells; assay type: cell-based, HIV-1IIIB; conditions: one day
# Description: (2) Concentration of p24 antigen contained in the supernatant liquid in the culture after incubation of the CEM-3B cells mentioned in Example 15-(1) for one day was measured.
# [4] = system: RAW264.7 cells; assay: Inhibition of LPS-caused cell damage in RAW264.7; assay type: cell-based, mouse; conditions: RAW 264.7
# Description: as §1
# Dulbecco-modified Eagle's medium (manufactured by Life Technologies Oriental; 11054-020) containing 2 mM of L-glutamine (manufactured by Life Technologies Oriental; 25030-149) containing no Phenol Red containing 5 ml of 10% fetal calf serum (manufactured by Gibco) containing 1.5×10^6 cells of RAW 264.7 was incubated in a six-well tissue culture plate in the presence of 5% carbon dioxide gas at 37° C. for 12 hours, 50μl of 50μg/ml LPS (manufactured by Sigma; L-2012) was added, then each 50 μl of 250 )i M Mn or 100 μH GM was added to each well, incubation was further continued for additional 12 hours and, after that, NO2^- produced by oxidation of NO in the medium and amount of viable cell numbers were measured. Incidentally, a sect-Lon where no LPS was added and a section where no GM was added were prepared as controls.
# [5] = system: Jurkat cells; assay: Growth of Jurkat cells (MTT); assay type: cell-based, human; conditions: 24 hours
# Description: (§2) (1) Jurkat cells (ATCC TIB-152) and Molt-3 cells (ATCC CRL-1552) which were human T cell leukemia cell stain were incubated in an RPMI 1640 medium (manufactured by Gibco BRL) containing 10% fetal calf serum (FCS, manufactured by Bio Whittaker) at 37° C. in the presence of 5% CO2 and the cells were then suspended in the above-mentioned medium containing 0, 5, 10 or 20 μM of GM to make the cell numbers 5×10^5 cells/ml followed by incubating for 24 hours. Cell growth was measured by an MTT method [Mosmann, et al.: J. Immunol. Methods, volume 65, pages 55-63 (1983)] wherein degree of cell growth was determined by the absorbance at 560 nm.
# [6] = system: CEM-3B cells (CEM-SS cells infected with HIV-1IIIB); assay: Survival rate of HIV-1IIIB-infected CEM-SS cells (CEM-3B); assay type: cell-based; conditions: for survival rate of cells: one day
# Description: GM (0, 4, 8 or 16 μM) was added to 2×10^5 cell/ml of CEM-SS cells (ATCC CCL-119) and to CEM-SS cells infected with HIV-1IIIB (wherein not less than 90% of the CEM-SS cells were infected with the HIV-1IIIB; hereinafter, referred to as CEM-3B) incubation was conducted for one day, viable cell numbers and dead cell numbers were counted and survival cell rate was calculated.
# [7] = system: Molt-3 cells; assay: Growth of Molt-3 cells (MTT); assay type: cell-based, human; conditions: 24 hours
# Description: as §2
# [8] = Homo sapiens, 10 μM, read-out: inhibition of cell growth
# [9] = Homo sapiens, 20 μM, read-out: inhibition of cell growth
SMILES,Induction of Heat Shock Protein [1],inhibition of NO production [2],p24 concentration in supernatant [3],inhibition of cell damage caused by LPS [4],effect in the growth of cells ([5]; 5 μM or less),"inhibition at 10 µM [5, 8] [%]","inhibition at 20 µM [5, 9] [%]","survival rate of cells ([6]; 16 μM, compared with CEM-SS)",survival rate of cells ([6]; 4 or 8 μM),"selective cytocidal effect to HIV-infected cells, antiviral action to HIV ([6]; Example 15)",effect in the growth of cells ([7]; 5 μM or less),"inhibition at 10 µM [7, 8] [%]","inhibition at 20 µM [7, 9] [%]"
N[C@@H](CSC1C=C(O)C(=O)C1)C(=O)O (stereo partly shown) [CM],-,,,,,,,,,,,,
"N[C@@H](CCC(=O)N[C@@H](CSC1C=C(O)C(=O)C1)C(=O)NCC(=O)O)C(=O)O (stereo partly shown) [GM, 2-hydroxy-4-glutathion-S-yl-2-cyclopenten-1-one]",,inhibited the NO production induced by LPS,the p24 concentration decreased depending upon the concentration of the added GM,inhibited the cell damage in RAW 264.7 cells caused by LPS,no significant effect in the growth of cells,~50,≥ 75,decreased more significantly,the survival rate significantly decreased depending upon the concentration,selective cytocidal effect to HIV-infected cells,no significant effect in the growth of cells,~50,≥ 75
